Measurements as given in publication PMC8048873 (The Plant Journal, 2021).

Molecular target: T1, CERK1 ectodomain (CERK1-ECD; LYK1) (Arabidopsis thaliana, UniProt A8R7E6)
T1 sequence (A8R7E6 24-232): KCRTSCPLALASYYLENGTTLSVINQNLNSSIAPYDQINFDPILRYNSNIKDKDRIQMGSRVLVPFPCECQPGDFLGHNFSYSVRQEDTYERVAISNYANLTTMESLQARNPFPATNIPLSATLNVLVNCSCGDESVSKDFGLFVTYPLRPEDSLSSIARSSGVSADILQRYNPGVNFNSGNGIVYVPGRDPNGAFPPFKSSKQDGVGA
Assay: isothermal titration calorimetry
Assay type: binding
Conditions: 20 mM MES pH 6.5, 150 mM NaCl, 25°C; 50 µM protein in cell, ligand 500 µM or 1 mM; n = 2

Work on `CC(=O)N[C@H]1[C@H](O[C@H]2[C@H](O)[C@@H](NC(C)=O)[C@H](O[C@H]3[C@H](O)[C@@H](NC(C)=O)C(O)O[C@@H]3CO)O[C@@H]2CO)O[C@H](CO)[C@@H](O[C@@H]2O[C@H](CO)[C@@H](O[C@@H]3O[C@H](CO)[C@@H](O[C@@H]4O[C@H](CO)[C@@H](O)[C@H](O)[C@H]4NC(C)=O)[C@H](O)[C@H]3NC(C)=O)[C@H](O)[C@H]2NC(C)=O)[C@@H]1O` (stereo partly drawn) [1,4‐β‐D‐(GlcNAc)6, chitohexaose] yielded a Kd of 37.5 ± 10 µM.
